The source of these data is US20240327432A1, “THIOPHENE-PHENOTHIAZINE COMPOUNDS AND SYNTHESIS METHOD THEREOF, AS WELL AS APPLICATION THEREOF IN PREPARATION OF PHOTOTHERAPY MEDICINES” (Guangzhou Medical University, priority 2023, published 2024).

Series [1] has as its system MCF-7 cells. The experiment in a line: Phototoxicity measurement (CCK-8), MCF-7. The class given is cell-based, human. On the procedure: (§1) (1) Cell culture: HUVEC cells (human umbilical vein endothelial cells), A549 cells (human lung cancer cells), MCF-7 cells (human breast cancer cells), HeLa cells (human cervical cancer cells) and 4T1 cells (mouse breast cancer cells) were cultured in a DMEM high-glucose medium containing 10% fetal bovine serum and 1% penicillin-streptomycin at 37° C. and under a condition of a 5% carbon dioxide content. The HUVEC cells, the A549 cells, the MCF-7 cells, the HeLa cells and the 4T1 cells, at a logarithmic growth phase, were taken and inoculated into a 96-well plate, respectively, with approximately 1×10^4 cells per well, and incubation was performed overnight at 37° C. and under a condition of 5% CO2.
(§2) (3) Phototoxicity measurement: the cells were incubated in the dark with the compound of the present invention of different concentrations for 1 hour, rinsing was performed with PBS, a fresh culture solution was added, and the cells were irradiated with 630 nm LED light (light dose is 3.2 J cm^−2). Then the cells were incubated in the dark environment for 24 hours, and cell viability was measured by the CCK-8 method.

The subject of series [2] is subcutaneous breast cancer (4T1) tumor model. The experiment in a line: In vivo PDT inhibition of breast cancer growth. The arrangement: species or system BALB/c mice. As to conditions: 21 days. The source says:
(§3) 7-week-old BALB/c female mice weighing 18 g±1 g (purchased from Zhejiang Vital River Laboratory Animal Technology Co., Ltd) were used to construct a subcutaneous breast cancer (4T1) tumor model. When tumor volumes of the BALB/c mice were approximately 100 mm^3, in vivo anti-tumor experiments began. When the tumor volumes of the BALB/c mice were approximately 200 mm^3, imaging experiments began.
The BALB/c mice with the tumor volumes of approximately 100 mm^3 were taken, and the tumor bearing mice were divided into 4 groups, namely groups A, B, C and D, with 5 mice in each group. The mice in the group A and the group B were injected with 1×PBS 100 μL via tail veins. In addition, the mice in the group C and the group D were injected with compound I-3 via the tail veins at a dose of 1.6 mg/kg; and after 2 hours, the mice in the group B and the group D were irradiated with a light source (655 nm, 300 mW cm^2) for 10 minutes. Body weights and tumor volumes of the mice were measured on the 2nd day, 4th day, 8th day, 12th day, 16th day, and 21st day, respectively. On the 21st day, approximately 0.8 mL of mouse blood was collected using an eyeball blood sampling method, of which 0.4 mL of the mouse blood was placed in an EDTA-2K anticoagulant tube, and the remaining 0.4 mL of the mouse blood was centrifuged for serum collection.

Series [3] deals with 4T1 subcutaneous tumors. As to the kind of experiment: Distribution in 4T1 subcutaneous tumors of mice (imaging). It is filed as in vivo, BALB/c mice. The settings on record: 1.6 mg/kg via tail vein. On the procedure:
as §3
A solution of 10 mg/L was prepared from the compound I-3 of the present invention by using 1×PBS. The BALB/c mice with the tumor volumes of approximately 200 mm^3 were taken, and the solution was injected into tumor bearing mice via tail veins at a dose of 1.6 mg/kg. Imaging photos were taken at different times using Odyssey CLX, with excitation light of 680 nm and detection light of 720 nm. […] Therefore, the thiophene-phenothiazine compound of the present invention can be completely metabolized within 24 hours, effectively solving a metabolic problem in existing PDT treatment mentioned above.

In series [4] the test system is 4T1 cells. The experiment in a line: Phototoxicity measurement (CCK-8), 4T1. The class given is cell-based, mouse. The procedure: as §1, §2
Series [5] relates to A549 cells. The experiment in a line: Dark toxicity measurement (CCK-8), A549. The class given is cell-based. The settings on record: Homo sapiens, 24 h in dark, read-out: DK IC50 (dark toxicity). The procedure:
as §1
(§4) (2) Dark toxicity measurement: the cells were incubated in a dark environment with the compound of the present invention of different concentrations for 24 hours, and cell viability was measured by a CCK-8 method.

Series [6] is described as follows: Singlet oxygen generation, DPBF steady-state method. The class given is physicochemical. The settings on record: 2 μM in EtOH, 630 nm LED, irradiation for 20 s. On the procedure:
The efficiency of producing singlet oxygen through photosensitization is an important index for evaluating the photosensitizers. In the example, a conventional steady-state method was used, 1,3-diphenylisobenzofuran (DPBF) was used as a scavenger, which irreversibly reacted with the singlet oxygen to cause attenuation of the DPBF. An attenuation rate of the DPBF reflects production efficiency of ^1O2. Concentrations of the DPBF in EtOH at multiple irradiation time periods were measured by using a UV/Vis spectrum method.

Series [7] in a line: Absorption spectrum by UV-visible spectrophotometer. It is filed as physicochemical. The settings on record: measured in ethanol. On the procedure:
Detection of the thiophene-phenothiazine compounds prepared in Examples 1-5: the absorption spectrum of the thiophene-phenothiazine compound in an ethanol solution was measured by using a UV-visible spectrophotometer, and spectral properties of the thiophene-phenothiazine compound were analyzed according to Beer-Lambert law; and a fluorescence emission spectrum of the thiophene-phenothiazine compound in the ethanol solution was measured under excitation of light with a wavelength of 650 nm, and results are shown in Table 1 and FIGS. 2-3.
(§5) • a. Absorbance was measured in ethanol. • b. During fluorescence emission spectrum measurement, an excitation wavelength was 650 nm, and a solvent was methanol. • c. ϕF of MB was used as a reference [ϕF=0.04, methanol].

In series [8] the test system is HeLa cells. The experiment in a line: Phototoxicity measurement (CCK-8), HeLa. The class given is cell-based, human. The procedure:
as §1, §2

Series [9] deals with A549 cells. The experiment in a line: Phototoxicity measurement (CCK-8), A549. The class given is cell-based, human. The procedure: as §1, §2
Another series has as its system HUVEC cells. As to the kind of experiment: Dark toxicity measurement (CCK-8), HUVEC. As to conditions: Homo sapiens, 24 h in dark. It is filed as cell-based. On the procedure:
as §1, §4

Series [10] has as its system HeLa cells. As to the kind of experiment: Dark toxicity measurement (CCK-8), HeLa. The class given is cell-based. The settings on record: Homo sapiens, 24 h in dark, read-out: DK IC50 (dark toxicity). The procedure:
as §1, §4

Series [11] can be described thus: Fluorescence emission spectrum. The class given is physicochemical. On the procedure: Detection of the thiophene-phenothiazine compounds prepared in Examples 1-5: the absorption spectrum of the thiophene-phenothiazine compound in an ethanol solution was measured by using a UV-visible spectrophotometer, and spectral properties of the thiophene-phenothiazine compound were analyzed according to Beer-Lambert law; […] with a wavelength of 650 nm, and results are shown in Table 1 and FIGS. 2-3.
as §5

For series [12], the system named is MCF-7 cells. As to the kind of experiment: Dark toxicity measurement (CCK-8), MCF-7. The class given is cell-based. The settings on record: Homo sapiens, MCF7, 24 h in dark, read-out: DK IC50 (dark toxicity). The procedure:
as §1, §4

Series [13] has as its system 4T1 cells. The experiment in a line: Dark toxicity measurement (CCK-8), 4T1. The class given is cell-based, mouse. The settings on record: Mus musculus, 24 h in dark, read-out: DK IC50 (dark toxicity). On the procedure: as §1, §4
Series [14] is described as follows: Photostability under continuous LED irradiation. The class given is physicochemical. As to conditions: 630 nm LED, 106 mW cm^−2, FIG. 4. The procedure:
Good photostability is a prerequisite for ensuring continuous generation of ROS by the photosensitizers under light excitation, which can effectively prevent decomposition of the photosensitizers after illumination, avoiding a decrease in a ROS generation rate with increasing illumination time. An LED light source (630 nm, 106 mW cm^−2) was used to continuously irradiate the compound (5 μM), and a UV-visible spectrophotometer was used to measure the absorption spectrum of the compound at 200-800 nm. The photostability of the compound was evaluated by comparing changes in maximum absorption values at 600-800 nm after different irradiation times.
Result diagrams of other compounds are similar to that of the compound I-3.

In series [15] the test system is 4T1 subcutaneous tumors. The settings on record: comparison from prior knowledge; cited from earlier work.
The mark [16] stands for this setting: Homo sapiens, light or radiation study, 1 h incubation, 630 nm LED, 3.2 J cm^−2, then 24 h, read-out: PDK IC50 (phototoxicity).

Usually IC50 stands for the midpoint of a concentration-inhibition curve. For the compound `CCCNc1cc2c(c3sccc13)=Nc1ccc(N(CC)CC)cc1S=2Cl` (stereo not shown) [Compound I-3], the “PI (phototherapeutic index)” value is on record as 24.00 in the series on MCF-7 cells [1], 44.51 in the series with 4T1 cells [4], 32.72 in the series with HeLa cells [8] and 31.35 in the series on A549 cells [9]. In addition, the IC50 in the series on MCF-7 cells [1] (Homo sapiens, MCF7, light or radiation study, 1 h incubation, 630 nm LED, 3.2 J cm^−2, then 24 h, read-out: PDK IC50 (phototoxicity)) was determined as 0.12 µM; in the series on 4T1 cells [4] (Mus musculus, light or radiation study, 1 h incubation, 630 nm LED, 3.2 J cm^−2, then 24 h, read-out: PDK IC50 (phototoxicity)) it was 0.19 µM; in the series with A549 cells [5], 6.59 µM; with HeLa cells [8] (setting [16]) it was 0.07 µM; in the series with A549 cells [9] (setting [16]), 0.21 µM; in the series with HUVEC cells, 13.6 µM. Also, the IC50 in the series on HeLa cells [10] came out at 2.4 µM; in the series with MCF-7 cells [12], 2.86 µM; in the series on 4T1 cells [13], 8.67 µM. For the same compound, the “growth of tumor volumes” value in series [2] (group C: 1.6 mg/kg i.v. alone, no irradiation) is “did not show tumor growth inhibition”; in series [2] (group D: 1.6 mg/kg i.v. + light 655 nm, 10 minutes, after 2 hours), “significantly inhibited”. Besides, the “time within which metabolized in mice” value in the series on 4T1 subcutaneous tumors [3] is ≤ 24 h. Moreover, the “time after which compound gradually accumulates in tumors” value in the series on 4T1 subcutaneous tumors [3] (4T1 tumor bearing mice) is 1 h. Moreover, the “time of maximum accumulation in the tumors” value in the series on 4T1 subcutaneous tumors [3] (4T1 tumor bearing mice) amounted to 2 h. Also, the “imaging signal after 24 hours” value in the series with 4T1 subcutaneous tumors [3] (24 hours) was “basically not detected”. Further, the “photosensitive efficiency (1O2, DPBF attenuation)” value in series [6] came to 80%. Also, the “λmax (maximum absorption wavelength)” value in [7] came to 673 nm. For the same compound, the “λem (maximum fluorescence emission wavelength)” value in [11] (excitation 650 nm, solvent methanol) is reported as 700 nm. In addition, the “ϕF (fluorescence quantum yield)” value in series [11] (ϕF of MB as reference (0.04, methanol)) turned out to be 0.6. Further, the “change of maximum absorption value as irradiation time increases (photostability)” value in [14] is “does not show a significant change”.
Regarding porfimer sodium, the “metabolic time in the bodies” value with 4T1 subcutaneous tumors [15] is “about ten weeks”.
